Experimental data reported in ChEMBL document CHEMBL1201862, “PubChem BioAssay data set” (2004).
Calls of active or inactive are those of the source.

Legend:
Type in all cases: functional
Beta-galactosidase = Beta-galactosidase (Escherichia coli, UniProt Q8VNN2); assay: PubChem AID 485352
[1] = biological target: T1, Type-1 angiotensin II receptor (Homo sapiens, UniProt P30556); assay: AT1 receptor antagonists, dose response, selectivity assay for APJ receptor antagonist project, cell-based, uHTS hits (AID 463214);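 also: antagonist potency against angiotensin II stimulated AT1 response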
T1 sequence (P30556 whole entry): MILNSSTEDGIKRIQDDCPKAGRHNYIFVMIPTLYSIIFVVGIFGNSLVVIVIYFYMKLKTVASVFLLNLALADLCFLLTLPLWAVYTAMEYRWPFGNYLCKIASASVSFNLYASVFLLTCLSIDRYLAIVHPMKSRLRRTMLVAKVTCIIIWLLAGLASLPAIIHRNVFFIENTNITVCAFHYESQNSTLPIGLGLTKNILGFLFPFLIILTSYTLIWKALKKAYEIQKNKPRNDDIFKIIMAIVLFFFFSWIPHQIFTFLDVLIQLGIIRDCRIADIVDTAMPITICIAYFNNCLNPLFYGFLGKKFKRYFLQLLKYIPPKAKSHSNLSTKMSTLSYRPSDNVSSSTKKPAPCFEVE

Hexokinase HKDC1 = biological target: T2, Hexokinase HKDC1 (Homo sapiens, UniProt Q2TB90); assay: SAR analysis of small molecule inhibitors of hexokinase domain containing I (HKDC1). [Related pubchem assays (depositor defined):AID493160, AID493190]
T2 sequence (Q2TB90 whole entry): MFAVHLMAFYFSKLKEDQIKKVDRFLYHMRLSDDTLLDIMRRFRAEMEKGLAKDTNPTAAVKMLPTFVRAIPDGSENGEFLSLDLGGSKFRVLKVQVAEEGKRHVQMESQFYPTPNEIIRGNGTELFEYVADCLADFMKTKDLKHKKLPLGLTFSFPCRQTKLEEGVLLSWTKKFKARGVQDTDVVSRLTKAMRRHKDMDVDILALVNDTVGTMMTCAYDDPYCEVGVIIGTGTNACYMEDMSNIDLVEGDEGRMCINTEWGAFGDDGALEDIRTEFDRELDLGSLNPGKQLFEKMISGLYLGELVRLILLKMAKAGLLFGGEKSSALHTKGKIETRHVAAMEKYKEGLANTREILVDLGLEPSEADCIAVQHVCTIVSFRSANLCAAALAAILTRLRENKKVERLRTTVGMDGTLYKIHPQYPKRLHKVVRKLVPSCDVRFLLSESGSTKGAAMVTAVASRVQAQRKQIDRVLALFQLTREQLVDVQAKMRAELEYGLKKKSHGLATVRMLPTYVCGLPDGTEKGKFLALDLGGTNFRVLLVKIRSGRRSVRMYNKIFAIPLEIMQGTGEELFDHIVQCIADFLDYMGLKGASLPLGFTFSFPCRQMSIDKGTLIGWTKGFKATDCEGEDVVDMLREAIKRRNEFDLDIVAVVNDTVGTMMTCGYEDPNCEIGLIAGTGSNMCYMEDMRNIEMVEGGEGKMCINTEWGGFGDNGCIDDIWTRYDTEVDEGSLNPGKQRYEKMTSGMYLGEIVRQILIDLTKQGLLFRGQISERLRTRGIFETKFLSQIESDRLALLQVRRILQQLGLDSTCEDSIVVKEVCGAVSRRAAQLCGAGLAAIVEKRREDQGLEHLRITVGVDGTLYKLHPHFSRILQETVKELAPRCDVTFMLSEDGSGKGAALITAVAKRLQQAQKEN

Hexokinase-1 = biological target: T3, Hexokinase-1 (Homo sapiens, UniProt P19367); assay: SAR analysis of small molecule inhibitors of hexokinase domain containing I (HKDC1) in the hexokinase 1 selectivity assay. [Related pubchem assays (depositor defined):AID493160, AID493190]
T3 sequence (P19367 whole entry): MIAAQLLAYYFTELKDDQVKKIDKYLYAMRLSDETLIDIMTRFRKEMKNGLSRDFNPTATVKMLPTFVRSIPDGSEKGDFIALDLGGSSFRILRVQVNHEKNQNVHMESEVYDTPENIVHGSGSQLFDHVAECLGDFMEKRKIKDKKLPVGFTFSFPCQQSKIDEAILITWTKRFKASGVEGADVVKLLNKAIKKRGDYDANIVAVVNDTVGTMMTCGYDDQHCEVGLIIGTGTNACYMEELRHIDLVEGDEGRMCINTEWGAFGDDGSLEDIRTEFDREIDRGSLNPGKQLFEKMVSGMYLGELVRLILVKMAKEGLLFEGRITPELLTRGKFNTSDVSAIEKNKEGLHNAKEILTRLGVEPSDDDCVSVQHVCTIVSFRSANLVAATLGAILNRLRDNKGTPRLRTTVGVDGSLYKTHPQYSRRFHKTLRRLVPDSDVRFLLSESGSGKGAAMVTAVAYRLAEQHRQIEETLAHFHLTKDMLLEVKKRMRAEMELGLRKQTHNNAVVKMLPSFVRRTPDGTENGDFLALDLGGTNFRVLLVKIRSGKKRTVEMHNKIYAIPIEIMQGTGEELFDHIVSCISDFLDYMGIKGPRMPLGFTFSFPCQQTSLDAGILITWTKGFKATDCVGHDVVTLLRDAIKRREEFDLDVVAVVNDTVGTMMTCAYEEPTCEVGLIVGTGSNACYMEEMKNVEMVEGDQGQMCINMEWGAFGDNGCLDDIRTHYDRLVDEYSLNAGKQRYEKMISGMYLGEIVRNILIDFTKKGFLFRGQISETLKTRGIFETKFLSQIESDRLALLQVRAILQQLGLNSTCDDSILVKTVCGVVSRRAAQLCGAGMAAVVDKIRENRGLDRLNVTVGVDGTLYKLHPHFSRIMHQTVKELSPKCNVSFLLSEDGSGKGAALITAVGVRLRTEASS

[2] = biological target: Beta-2 adrenergic receptor (Homo sapiens, UniProt P07550); assay: beta2AR agonists driving receptor internalization, dose response, cell-based, FAP fluorogen, flow cytometry, cherry pick 1 (AID 588763)
Chain of Beta-2 adrenergic receptor (P07550 whole entry): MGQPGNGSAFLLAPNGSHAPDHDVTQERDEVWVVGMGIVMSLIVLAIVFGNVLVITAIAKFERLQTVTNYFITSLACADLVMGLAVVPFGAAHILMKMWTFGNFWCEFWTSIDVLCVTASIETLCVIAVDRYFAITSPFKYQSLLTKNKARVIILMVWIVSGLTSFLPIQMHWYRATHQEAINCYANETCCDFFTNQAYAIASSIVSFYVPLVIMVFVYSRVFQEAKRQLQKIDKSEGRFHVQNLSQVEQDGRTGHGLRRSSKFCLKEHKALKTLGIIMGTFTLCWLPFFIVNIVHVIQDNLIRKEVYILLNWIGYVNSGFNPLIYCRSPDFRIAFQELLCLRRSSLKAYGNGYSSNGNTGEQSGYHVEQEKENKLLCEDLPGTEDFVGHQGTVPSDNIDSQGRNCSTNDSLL

Chain of Beta-galactosidase (Q8VNN2 whole entry): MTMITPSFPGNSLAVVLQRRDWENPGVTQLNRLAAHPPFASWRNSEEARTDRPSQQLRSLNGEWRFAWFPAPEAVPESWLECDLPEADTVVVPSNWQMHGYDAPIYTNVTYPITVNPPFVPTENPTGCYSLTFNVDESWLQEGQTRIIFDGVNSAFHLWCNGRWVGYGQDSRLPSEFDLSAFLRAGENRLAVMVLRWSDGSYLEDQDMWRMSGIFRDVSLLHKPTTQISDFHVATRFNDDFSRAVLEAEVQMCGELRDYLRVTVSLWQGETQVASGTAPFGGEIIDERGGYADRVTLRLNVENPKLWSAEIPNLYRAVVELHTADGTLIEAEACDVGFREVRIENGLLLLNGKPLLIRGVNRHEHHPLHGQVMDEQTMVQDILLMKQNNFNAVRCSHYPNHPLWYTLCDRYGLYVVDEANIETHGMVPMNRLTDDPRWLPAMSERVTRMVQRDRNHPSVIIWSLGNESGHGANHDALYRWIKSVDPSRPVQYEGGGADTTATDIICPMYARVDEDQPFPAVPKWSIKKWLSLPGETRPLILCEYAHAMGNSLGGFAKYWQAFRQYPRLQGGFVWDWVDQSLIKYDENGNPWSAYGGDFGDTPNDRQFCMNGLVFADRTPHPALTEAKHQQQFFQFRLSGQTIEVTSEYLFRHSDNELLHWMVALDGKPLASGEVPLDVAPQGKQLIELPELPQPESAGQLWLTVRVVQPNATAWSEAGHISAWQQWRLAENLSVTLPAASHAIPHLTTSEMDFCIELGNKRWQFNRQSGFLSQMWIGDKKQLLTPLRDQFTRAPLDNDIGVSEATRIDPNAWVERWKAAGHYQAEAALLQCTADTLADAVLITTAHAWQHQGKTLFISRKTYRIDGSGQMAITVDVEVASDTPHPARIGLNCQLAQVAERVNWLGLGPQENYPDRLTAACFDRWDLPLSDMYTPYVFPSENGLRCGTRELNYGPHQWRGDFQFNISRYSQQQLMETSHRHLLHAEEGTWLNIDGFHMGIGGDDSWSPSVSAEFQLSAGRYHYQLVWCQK

SMILES: O=C(Cc1ccccc1)NCC(=O)OCC(=O)c1cccc([N+](=O)[O-])c1
- EC50 (Beta-galactosidase): > 40 µM (inactive)
- IC50 [1]: 23.2 µM (not active)

SMILES: COc1ccc(NC(=O)c2ccc(NC(=O)c3scnc3C)cc2)cc1
- IC50 (Hexokinase HKDC1): > 80 µM (inactive)
- IC50 (Hexokinase-1): > 80 µM (inactive)

SMILES: CCSc1nc2ccccc2n1C(=O)c1ccc(S(=O)(=O)N2CCCCCC2)cc1
- EC50 [2]: 12.5 µM (inactive)
